From patent US12134594B2, “Composition and application thereof as antitumor drug” (Guangdong Jianersheng Pharmaceutical Technology Co., Ltd., priority 2018, dated 2024)
pIC50: −log10 of the molar value.

Columns and labels:
LLC-PK1 cells = assay: in vitro MTT cell viability assay, LLC-PK1 cells; assay type: cell-based, pig
Procedure: (§1) The cells involved in this example include a human renal proximal tubular cell line HK2 ([…]2190), a pig proximal tubular cell line LLC-PK1 ([…] 101) and a mouse breast cancer cell line 4[…]2539), which were all purchased from American Type Culture Collection. LLC-PK1 cells were cultured in Dulbecco modified Eagle's medium (DMEM), HK2 cells were cultured in DMEM/F12 medium, and 4T1 cells were cultured in RPMI 1640 medium. All cell media were supplemented with 10% FBS, 100 units/ml penicillin and 100 […]. The cell lines were incubated at 37° C. in a 5% CO2 atmosphere and subcultured twice a week. 3.2 In vitro cell viability assay The HK2 cells and the LLC-PK1 cells were treated with trypsin and inoculated in a 100 μL medium in a 96-well plate at a density of 10,000 cells/well. The cells were incubated for 24 h before treatment. To examine the toxicity of the novel compound, the cells were treated with different doses of the novel compound for 24 h. […] The medium was then changed, and the cells were treated with different doses of the novel compound for 48 h. After treatment, cell viability was measured by an MTT assay. 10 μL of a 12 mM MTT (3-(4,5-dimethylthiazol-2-yl)-2,5-diphenyltetrazolium bromide) stock solution was added into each well. After incubation for 4 h at 37° C., the medium was removed; 100 μL of dimethyl sulfoxide (DMSO) was added into each well, and then the plate was incubated for 10 min at 37° C. The plate was shaken in a plate oscillator, and a plate reader (Bio-Tek) was used to measure the absorbance at 570 nm.

HK2 cells [1] = assay: platinum content in HK2 cells by ICP-MS; assay type: cell-based, human
Procedure: The amount of platinum in the cells was determined by an IPC-MS assay.
Platinum concentration was 8.33 ng/10^6 cells. […] Platinum concentration in the HK2 cells dropped by 38.0% to 5.16 ng/10^6 cells as a result.

[2] = kidney histopathology (HE) in 4T1 mouse model; assay type: in vivo; settings: 3 weeks
Procedure: The control group was intraperitoneally (i.p.) administrated with 0.9% normal saline. […] All mice were treated for 3 weeks. Histopathological examination of mouse tissues: histopathological changes of the kidney were examined by a 4 μm-thick deparaffinized section stained with hematoxylin and eosin (HE). To evaluate tubular damages, dilation, necrosis, apoptosis, and cast formation of renal tubules were assessed via 10 different fields of view (Zeiss Axio imager electrofluorescence microscope) at the cortical medullary junction of the kidney.

[3] = metal and platinum amount in kidney by ICP-MS; assay type: in vivo, mouse
Procedure: The control group was intraperitoneally (i.p.) administrated with 0.9% normal saline. […] All mice were treated for 3 weeks. The kidney was sliced, weighed and dissolved in 70% HNO3; blood plasma was diluted with 70% HNO3. The sample was heated by a 100° C. hot block until thoroughly evaporated. All solid residues were re-dissolved in 5 mL of 2% HNO3. Platinum was quantified by inductively coupled plasma mass spectrometry (ICP-MS).

[4] = blood BUN and creatinine (kidney injury markers) in 4T1 mouse model; assay type: in vivo; settings: 3 weeks
Procedure: The control group was intraperitoneally (i.p.) administrated with 0.9% normal saline. […] All mice were treated for 3 weeks.
An EDTA tube was used to collect whole blood for a complete blood count (CBC) test. Plasma was collected by centrifugation blood collected in a heparin-coated tube. The plasma was used to carry out tests and analyses including CBC and a blood chemical test; plasma BUN and creatinine level were markers of kidney injury.
A 4T1 breast cancer mouse model was used to evaluate the antitumor ability and protective effect of the novel compound. […] When the novel compound was used for intervention, BUN level dropped by 46% to 47.6 mg/dl.

rats = assay: acute oral lethal dose (LD50) in rats; assay type: in vivo, rat
Text: (§2) According to the technical solutions provided by the present disclosure, the disclosure has the following beneficial effects: • 1. The novel compound in the composition has a high chelating effect on the platinum-based antitumor compound and toxic heavy metals. […] For example, in a test performed in a mouse model with 4T1 breast carcinoma xenografts, the composition combined treatment could better delay tumor growth and inhibit metastasis than administrating the platinum-based antitumor compound alone. • 4. […] Co-treatment using the composition could greatly reduce systemic toxicity in mice and reduce weight loss caused by administrating the platinum-based antitumor compound alone.

mice = assay: acute oral lethal dose (LD50) in mice; assay type: in vivo, mouse
Text: as §2

HK2 cells [5] = assay: in vitro MTT cell viability assay, HK2 cells; assay type: cell-based, human
Procedure: as §1

[6] = after administration of cisplatin and GMDTC

## CSCC[C@@H](C(=O)[O-])N(C[C@H](O)[C@@H](O)[C@H](O)[C@H](O)CO)C(=S)[S-].[Na+].[Na+] [GMDTC, sodium (S)-2-(dithiocarboxylate ((2S,3R,4R,5R)-2,3,4,5,6-pentahydroxyhexyl)amino)-4-(methylthio)butyrate]
LLC-PK1 cells; 400 μM, 24 h, MTT
  impact on viability of LLC-PK1 cells compared with blank control: not significantly
LLC-PK1 cells; LLC-PK1 cells, 50 μM cisplatin + novel compound, 24 h (FIG. 3B)
  cytotoxicity on co-treatment: reduce cytotoxicity
LLC-PK1 cells; LLC-PK1 cells, 24 h, MTT, read-out: IC50 (toxicity, cell viability)
  pIC50: ~2.10
HK2 cells [1]; 50 μM cisplatin + 1000 μM novel compound vs cisplatin alone
  drop of platinum concentration in HK2 cells: 91.5%
HK2 cells [1]; 50 μM cisplatin co-administrated with 1000 μM novel compound, 24 h
  platinum concentration in HK2 cells: 17.2 ng/10^6 cells
HK2 cells [1]; cisplatin exposure 30 min, then 1000 μM novel compound intervention, 48 h
  platinum concentration in HK2 cells: 5.16 ng/10^6 cells
HK2 cells [1]; rescue with 1000 μM novel compound after 30 min cisplatin vs no rescue
  drop of platinum concentration in HK2 cells: 38.0%
[2]; mice co-treated with cisplatin and 500 mg/kg novel compound, compared with control group
  kidney histopathology: no significant difference
[3]; mice, ICP-MS, compared with control mice (Table 1 and Table 2)
  effect on amount and distribution of normal (essential) metals in the body: does not affect
[4]; cisplatin + 500 mg/kg novel compound vs cisplatin alone
  drop of BUN level: 46%
[4]; mice, 5 mg/kg cisplatin twice a week + 500 mg/kg novel compound 2 h after cisplatin
  BUN level: 47.6 mg/dL
rats
  acute oral lethal dose (LD50): greater than 10,000 mg/kg
mice
  acute oral lethal dose (LD50): greater than 10,000 mg/kg
HK2 cells [5]; 1000 μM, 24 h, MTT
  impact on viability of HK2 cells compared with blank control: not significantly
HK2 cells [5]; HK2 cells pretreated with 300 μM cisplatin 30 min, then GMDTC for 48 h (FIG. 4)
  cell viability: 60 % of that of the control group
HK2 cells [5]; HK2 cells, 50 μM cisplatin + increasing doses of novel compound, 24 h (FIG. 3A)
  cell viability: 80%
HK2 cells [5]; HK2 cells, 24 h, MTT, read-out: IC50 (toxicity, cell viability)
  pIC50: ~2.10

## N.N.[Cl][Pt][Cl] [cisplatin]
HK2 cells [1]; 50 μM cisplatin, 24 h
  platinum concentration in HK2 cells: 202.6 ng/10^6 cells
HK2 cells [1]; cisplatin (300 μM) exposure 30 min, removed, cultured 48 h
  platinum concentration in HK2 cells: 8.33 ng/10^6 cells
[2]; mice treated with 5 mg/kg cisplatin twice a week, 5 mg/kg
  kidney histopathology: extensive necrosis and degeneration
[2]; mice treated with 5 mg/kg cisplatin twice a week, listed as Cisplatin, 5 mg/kg
  kidney histopathology: extensive necrosis and degeneration of tubule cells
[3]; [6]
  Amount in kidney: 27Al: 3.93 µg/g
  Amount in kidney: 55Mn: 0.92 µg/g
  Amount in kidney: 65Cu: 4.13 µg/g
  Amount in kidney: 66Zn: 24.4 µg/g
  Amount in kidney: 195Pt: 9.841 µg/g
[4]; mice, 5 mg/kg cisplatin i.p. twice a week
  average BUN level: 87.9 mg/dL
